Reference: US20250051346A1 (priority 2021, published 2025)

What was measured:
mice = details: mouse, in vivo
5HT2A sensor [1] = format: cell-based
5HT2A sensor [2] = format: cell-based; remark: listed apart in the source
5-HT2A [3] = target: T1, 5-HT2A (Homo sapiens, UniProt P28223); assay: Serotonin 5-HT2A in vitro cellular IPOne agonism assay; format: cell-based; parameters: host or cells: CHO-K1; details: benzothiophenes; CHO-K1 cells, 60 min
Procedure: Serotonin 5-HT2A In Vitro Cellular IPOne Agonism Assay. The 5-HT2A IPOne HTRF assay was performed at Epics Therapeutics S.A. (Belgium, FAST-0505I) using conventional methods. Briefly, CHO-K1 cells expressing human recombinant 5-HT2A receptor grown to mid-log phase in culture media without antibiotics were detached with PBS-EDTA, centrifuged, and resuspended in medium without antibiotics buffer. 20,000 cells are distributed in a 96 well plate and incubated overnight at 37° C. with 5% CO2.
For agonist testing, the medium was removed and 20 μl of assay buffer plus 20 μl of test compound or reference agonist were added in each well. The plate was incubated for 60 min. at 37° C. with 5% CO2.
After addition of the lysis buffer containing IP1-d2 and anti-IP1 cryptate detection reagents, plates were incubated 1-hour at room temperature, and fluorescence ratios were measured according to the manufacturer specification, with the HTRF kit.

5-HT2A [4] = target: T1, 5-HT2A; assay: Serotonin 5-HT2A in vitro cellular IPOne antagonism assay; format: cell-based; parameters: host or cells: CHO-K1; details: CHO-K1 cells; reference agonist a-Me-5HT
Procedure: Serotonin 5-HT2A In Vitro Cellular IPOne Antagonism Assay. The 5-HT2A IPOne HTRF assay was performed at Epics Therapeutics S.A. (Belgium, FAST-0505I) in antagonism mode using conventional methods. Briefly, CHO-K1 cells expressing human recombinant 5-HT2A receptor grown to mid-log phase in culture media without antibiotics were detached with PBS-EDTA, centrifuged, and resuspended in medium without antibiotics buffer. 20,000 cells are distributed in a 96 well plate and incubated overnight at 37° C. with 5% CO2.
For antagonist testing, a reference agonist a-Me-5HT was added and fluorescence signal monitored for several minutes, followed by addition of 20 μl of assay buffer plus 20 μl of test compound or reference antagonist ketanserin, in each well. The plate was incubated for 60 min. at 37° C. with 5% CO2.
After addition of the lysis buffer containing IP1-d2 and anti-IP1 cryptate detection reagents, plates were incubated 1-hour at room temperature, and fluorescence ratios are measured according to the manufacturer specification, with the HTRF kit.

5-HT2A [5] = target: T1, 5-HT2A; assay: Serotonin 5-HT2A in vitro radioligand binding competition assay; parameters: purchased Epics Therapeutics S.A. (Belgium), contract assay FAST-0505B; host or cells: membrane extracts; details: benzothiophenes; [3H]-DOI radiotracer, membrane extracts; read-out: 5HT2A R[…] ACTIVITY
Procedure: Serotonin 5-HT2A In Vitro Radioligand Binding Competition Assay. The 5-HT2A radioligand binding competition assay was performed at Epics Therapeutics S.A. (Belgium, FAST-0505B) using conventional methods. Briefly, competition binding was performed in duplicate in the wells of a 96 well plate (Master Block, Greiner, 786201) containing binding buffer (optimized for each receptor), membrane extracts (amount of protein/well optimized for each receptor), radiotracer [^3H]-DOI (final concentration optimized for each receptor) and test compound. Nonspecific binding was determined by co-incubation with 200-fold excess of cold competitor. The samples were incubated in a final volume of 0.1 ml at a temperature and for a duration optimized for each receptor and then filtered over filter plates. Filters were washed six times with 0.5 ml of ice-cold washing buffer (optimized for each receptor) and 50 μl of Microscint 20 (Packard) were added in each well. The plates were incubated 15 min on an orbital shaker and then counted with a TopCount™ for 1 min/well.

T1 sequence (P28223 whole entry): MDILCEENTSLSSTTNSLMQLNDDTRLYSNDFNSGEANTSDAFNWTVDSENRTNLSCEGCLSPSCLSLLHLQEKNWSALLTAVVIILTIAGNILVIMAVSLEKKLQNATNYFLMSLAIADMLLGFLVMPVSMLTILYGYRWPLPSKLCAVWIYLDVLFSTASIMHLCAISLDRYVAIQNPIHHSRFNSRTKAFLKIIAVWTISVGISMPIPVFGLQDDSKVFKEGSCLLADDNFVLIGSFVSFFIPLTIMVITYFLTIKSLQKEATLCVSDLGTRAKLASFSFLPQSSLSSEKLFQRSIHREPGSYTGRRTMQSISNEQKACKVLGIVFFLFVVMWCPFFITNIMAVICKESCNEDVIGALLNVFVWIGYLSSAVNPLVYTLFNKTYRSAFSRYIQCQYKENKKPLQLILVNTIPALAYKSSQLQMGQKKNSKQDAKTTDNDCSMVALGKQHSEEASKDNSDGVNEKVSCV

5-MeO-DMT [Compound 5-MeO-DMT]
head-twitch response (HTR) (mice): robust, dose-dependent head-twitch response
activation of the 5HT2A sensor assay (5HT2A sensor [1]): activate the 5HT2A sensor assay in agonist mode

CCN(CC)C(=O)[C@@H]1C=C2c3cccc4[nH]c(Br)c(c34)C[C@H]2N(C)C1 [BOL148]
activation of the 5HT2A sensor assay (5HT2A sensor [1]): do not activate the 5HT2A sensor assay in agonist mode
competition with 5-HT at 5HT2A in the sensor assay (5HT2A sensor [2]): can compete with 5HT binding to 5HT2A

CCN(CC)CCc1c[nH]c2cc(F)ccc12 [Compound 6-F-DET, 6-F-DET]
activation of the 5HT2A sensor assay (5HT2A sensor [1]): do not activate the 5HT2A sensor assay in agonist mode
competition with 5-HT at 5HT2A in the sensor assay (5HT2A sensor [2]): can compete with 5HT binding to 5HT2A

c1ccc2c3c(sc2c1)CCN(C1CCC1)CC3 [Compound 73, 3-cyclobutyl-2,3,4,5-tetrahydro-1H-benzo[4,5]thieno[2,3-d]azepine]
EC50 (5-HT2A [3]): > 10000 nM
IC50 (5-HT2A [4]): 101 to 1000 nM
IC50 (5-HT2A [5]): 101 to 1000 nM

CN1CCc2sc3cc(OC(F)(F)F)ccc3c2CC1 [Compound 75, 3-methyl-8-(trifluoromethoxy)-2,3,4,5-tetrahydro-1H-benzo[4,5]thieno[2,3-d]azepine]
EC50 (5-HT2A [3]): > 10000 nM
IC50 (5-HT2A [4]): 101 to 1000 nM
IC50 (5-HT2A [5]): 1000 to 10000 nM

CN(C)CCc1c[nH]c2ccccc12 [DMT, N,N-dimethyltryptamine]
activation of the 5HT2A sensor assay (5HT2A sensor [1]): activate the 5HT2A sensor assay in agonist mode

O=C(c1ccc(F)cc1)C1CCN(CCn2c(=O)[nH]c3ccccc3c2=O)CC1 [Ketanserin]
activation of the 5HT2A sensor assay (5HT2A sensor [1]): do not activate the 5HT2A sensor assay in agonist mode
competition with 5-HT at 5HT2A in the sensor assay (5HT2A sensor [2]): can compete with 5HT binding to 5HT2A

CCN(CC)C(=O)[C@@H]1C=C2c3cccc4[nH]cc(c34)C[C@H]2N(C)C1 [LSD]
activation of the 5HT2A sensor assay (5HT2A sensor [1]): activate the 5HT2A sensor assay in agonist mode

DOI
activation of the 5HT2A sensor assay (5HT2A sensor [1]): activate the 5HT2A sensor assay in agonist mode

L-MDMA
activation of the 5HT2A sensor assay (5HT2A sensor [1]): do not activate the 5HT2A sensor assay in agonist mode

R-MDMA
activation of the 5HT2A sensor assay (5HT2A sensor [1]): do not activate the 5HT2A sensor assay in agonist mode
